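Following 48 hours of exposure in 96-well plates, responses at five concentrations were used to interpolate endpoints linearly. Here, GI50 denotes the concentration required for 50% inhibition of growth.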 The source made the active and inactive calls. Cut-off read from the data, not from the text of the source: active = GI50 up to about 1.1 µM and inactive = higher.

Some test systems named below: RXF 393; A498; HCT-15; TK-10; SNB-19; UO-31; CAKI-1; SNB-75; RPMI-8226; CCRF-CEM; SF-539; SF-295; HT-29; HCC 2998; Hs-578T; MOLT-4; SK-OV-3; 786-0; BT-549; U-251.
Common to all, as to test: NCI tumour cell line growth inhibition, 48 h

In the case of `Sc1nn2c(COc3cccc(OCc4nnc5sc(S)nn45)c3)nnc2s1`, the GI50 is > 100 µM (inactive) in the assay on RXF 393; > 100 µM (inactive) in the assay on A498; 52.8 µM with HCT-15; > 100 µM (inactive) with TK-10; > 100 µM (inactive) with SNB-19; > 100 µM (inactive) with UO-31. In addition, the GI50 with CAKI-1 is > 100 µM (inactive); in the assay with SNB-75, > 100 µM (inactive); in the assay with RPMI-8226, 73.5 µM (inactive); in the assay with CCRF-CEM it was 28.2 µM (inactive); in the assay on SF-539, 52.1 µM (inactive); with SF-295, > 100 µM (inactive). Also, the GI50 in the assay on HT-29 is 62.5 µM (inactive); with HCC 2998, > 100 µM (inactive); in the assay on Hs-578T it was > 100 µM (inactive); in the assay with MOLT-4, 2.09 µM (inactive); in the assay on SK-OV-3, > 100 µM (inactive); in the assay with 786-0, 41.4 µM (inactive). For the same compound, the GI50 in the assay on BT-549 and in the assay with U-251 was > 100 µM (inactive) each time.

Take `COC(=O)C(C)(NC(=O)C(CC(=O)OC(C)(C)C)NC(=O)OC(C)(C)C)c1ccccc1` (stereo not drawn): the GI50 in the assay with RXF 393 was > 100 µM (inactive); with A498, 54.3 µM (inactive); in the assay with HCT-15 it was greater than 100 µM; in the assay on TK-10, > 100 µM (inactive); in the assay with SNB-19, > 100 µM (inactive); in the assay on UO-31 it was 26.5 µM (inactive). For the same compound, the GI50 in the assay with CAKI-1 was > 100 µM (inactive); with SNB-75 it was 8.13 µM (inactive); in the assay on RPMI-8226, 72.8 µM (inactive); in the assay on CCRF-CEM it was > 100 µM (inactive); with SF-539, > 100 µM (inactive); with SF-295, 81.8 µM (inactive). The GI50 in the assay with HT-29, in the assay on HCC 2998, in the assay on Hs-578T, in the assay with MOLT-4, with SK-OV-3 and in the assay with 786-0 was > 100 µM (inactive) throughout. For the same compound, the GI50 in the assay on BT-549 and in the assay with U-251 was > 100 µM (inactive) in each case.

Take `c1ccc2c(c1)nnn2C1CCCCO1` (stereo not drawn): the GI50 with RXF 393 is > 100 µM (inactive); with A498 it was > 100 µM (inactive); in the assay on HCT-15 it was greater than 100 µM; with TK-10, > 100 µM (inactive); in the assay on SNB-19, > 100 µM (inactive); in the assay with UO-31, > 100 µM (inactive). In addition, the GI50 with CAKI-1, in the assay on SNB-75, in the assay with RPMI-8226, in the assay on CCRF-CEM, in the assay with SF-539 and with SF-295 was > 100 µM (inactive) each time. Further, the GI50 in the assay on HT-29, with HCC 2998, in the assay on Hs-578T, with MOLT-4, with SK-OV-3 and in the assay on 786-0 was > 100 µM (inactive) in each case. Moreover, the GI50 in the assay with BT-549 and in the assay with U-251 was > 100 µM (inactive) each time.

For the compound `N#Cc1cc2c(n(C3OC(CO)C(O)C(O)C3O)c1=S)CCCCC2` (stereo not drawn), the GI50 in the assay with RXF 393 was > 100 µM (inactive); in the assay with A498, > 100 µM (inactive); with HCT-15, greater than 100 µM; in the assay on TK-10, > 100 µM (inactive); in the assay with SNB-19 it was > 100 µM (inactive); in the assay on UO-31, > 100 µM (inactive). Further, the GI50 in the assay on CAKI-1, in the assay on SNB-75, in the assay on RPMI-8226, in the assay on CCRF-CEM, in the assay on SF-539 and in the assay on SF-295 was > 100 µM (inactive) in each case. Moreover, the GI50 with HT-29, in the assay on HCC 2998, with Hs-578T, with MOLT-4, with 786-0 and in the assay on BT-549 was > 100 µM (inactive) in each case. The GI50 in the assay with U-251 is > 100 µM (inactive).

Regarding `Nn1c(SCC(=O)O)nc2ccccc2c1=O`, the GI50 in the assay on RXF 393 is > 100 µM (inactive); in the assay on A498, > 100 µM (inactive); in the assay with HCT-15, greater than 100 µM; in the assay with TK-10, > 100 µM (inactive); in the assay on SNB-19 it was > 100 µM (inactive); with UO-31, > 100 µM (inactive). In addition, the GI50 in the assay on CAKI-1, in the assay on SNB-75, with RPMI-8226, in the assay with CCRF-CEM, with SF-539 and with SF-295 was > 100 µM (inactive) in each case. Moreover, the GI50 in the assay with HT-29, in the assay on HCC 2998, in the assay on Hs-578T, in the assay with MOLT-4, in the assay with 786-0 and in the assay with BT-549 was > 100 µM (inactive) each time. The GI50 in the assay on U-251 is > 100 µM (inactive).

Turning to `CC(=O)Oc1ccc2c(c1)CC[C@@H]1C2[C@@H](O[N+](=O)[O-])C[C@@]2(C)C1CC[C@@H]2O[N+](=O)[O-]` (stereo partly drawn), the GI50 in the assay with RXF 393 is 11.5 µM (inactive); with A498 it was 18.6 µM (inactive); with HCT-15 it was 13.3 µM; in the assay on TK-10 it was 19.8 µM (inactive); in the assay with SNB-19 it was 16.9 µM (inactive); in the assay on UO-31 it was 12.3 µM (inactive). Moreover, the GI50 in the assay with CAKI-1 is 19.3 µM (inactive); with SNB-75, 13.5 µM (inactive); in the assay on RPMI-8226 it was 7.41 µM (inactive); in the assay with CCRF-CEM it was 9.1 µM (inactive); in the assay on SF-539, 18.2 µM (inactive); in the assay on SF-295, 10.7 µM (inactive). The GI50 with HT-29 was 16.4 µM (inactive); in the assay on HCC 2998, 1.63 µM (inactive); in the assay on Hs-578T, 19.1 µM (inactive); in the assay on MOLT-4, 10.4 µM (inactive); with 786-0, 14.5 µM (inactive); in the assay on BT-549, 17.6 µM (inactive). In the assay on U-251, the GI50 was 14 µM (inactive).

Take `CN(CCNC(=O)c1nn(-c2ccccc2)c2c1ccc1ccccc12)CCNC(=O)c1nn(-c2ccccc2)c2c1ccc1ccccc12`: the GI50 with RXF 393 is 1.62 µM (inactive); with A498 it was 2 µM (inactive); with HCT-15 it was 1.76 µM; in the assay on TK-10, 1.4 µM (inactive); in the assay on SNB-19, 2.54 µM (inactive); with UO-31, 2.07 µM (inactive). Also, the GI50 in the assay with CAKI-1 was 3.33 µM (inactive); with SNB-75, 2.18 µM (inactive); in the assay on RPMI-8226, 0.202 µM (active); in the assay with CCRF-CEM, 2.9 µM (inactive); in the assay with SF-539, 1.66 µM (inactive); in the assay on SF-295 it was 1.61 µM (inactive). For the same compound, the GI50 in the assay with HT-29 is 2.94 µM (inactive); in the assay on HCC 2998 it was 1.53 µM (inactive); in the assay on Hs-578T, 2.14 µM (inactive); in the assay with MOLT-4, 0.38 µM (active); in the assay on SK-OV-3 it was 2.09 µM (inactive); in the assay on 786-0 it was 1.67 µM (inactive). In addition, the GI50 was 10.2 µM (inactive) in the assay with BT-549 and 1.57 µM (inactive) with U-251.

As for `C/C(=N\Nc1nc2cc(F)ccc2s1)c1ccccn1`, the GI50 with RXF 393 was 1.26 µM (inactive); in the assay on A498, 12.1 µM (inactive); in the assay with HCT-15, less than 0.022 µM; in the assay with SNB-19, 0.391 µM (active); in the assay on UO-31, 0.0192 µM (active); with CAKI-1, < 0.01 µM (active). Also, the GI50 in the assay with SNB-75 is 0.661 µM (active); in the assay on RPMI-8226 it was 0.136 µM (active); with CCRF-CEM, < 0.01 µM (active); with SF-539, 0.0906 µM (active); with SF-295, 0.275 µM (active); in the assay on HT-29, < 0.01 µM (active). Besides, the GI50 in the assay on HCC 2998 was 1.92 µM (inactive); with Hs-578T, 0.335 µM (active); in the assay on MOLT-4 it was 0.0102 µM (active); in the assay with SK-OV-3, 0.0953 µM (active); with 786-0, 0.0439 µM (active); in the assay with BT-549, 1.19 µM (inactive). Further, in the assay on U-251, the GI50 was 0.0402 µM (active).

Take `N/N=C(/CC(O)(C(F)(F)F)C(F)(F)F)c1ccccc1`: the GI50 with RXF 393 was > 10 µM (inactive); in the assay with A498, > 10 µM (inactive); in the assay with HCT-15, greater than 10 µM; in the assay on TK-10 it was > 10 µM (inactive); in the assay on SNB-19, > 10 µM (inactive); with CAKI-1, > 10 µM (inactive). Also, the GI50 with SNB-75, with RPMI-8226, in the assay with CCRF-CEM, with SF-539, in the assay on SF-295 and in the assay on HT-29 was > 10 µM (inactive) each time. Further, the GI50 in the assay with HCC 2998, in the assay on Hs-578T, with MOLT-4, with SK-OV-3, in the assay with 786-0 and with BT-549 was > 10 µM (inactive) throughout. Also, the GI50 in the assay on U-251 was > 10 µM (inactive).

For the compound `COc1ccc(CNNC(=O)c2cc[n+]([BH2-]C#N)cc2)cc1OC`, the GI50 in the assay on RXF 393 was > 100 µM (inactive); in the assay on A498, > 100 µM (inactive); in the assay on HCT-15, greater than 100 µM; in the assay on TK-10, > 100 µM (inactive); in the assay on SNB-19, > 100 µM (inactive); in the assay on UO-31, > 100 µM (inactive). The GI50 in the assay with CAKI-1, in the assay with SNB-75, with RPMI-8226, in the assay with CCRF-CEM, in the assay on SF-539 and in the assay with SF-295 was > 100 µM (inactive) each time. Also, the GI50 in the assay with HCC 2998, with Hs-578T, in the assay on MOLT-4, in the assay on 786-0, with BT-549 and in the assay with U-251 was > 100 µM (inactive) each time.

For the origin of these results see ChEMBL document CHEMBL1201862, “PubChem BioAssay data set” (2004).
